The target in assay [1] is T1, SREBP-2 (Homo sapiens (Human), UniProt Q12772). The experiment in a line: SREBP-2 IC50 (category A-D, Tables 1 and 3). The format is cell-based. The settings on record: Table 3, trans-AB examples.
For assay [2], the target named is T2, LXRβ (Homo sapiens (Human), UniProt P55055). Briefly: LXRβ PPI (category A-D, Tables 1 and 3). The format is biochemical. The following applies: Table 3, trans-AB examples.
Assay [3] concerns the target T2, LXRβ. The experiment in a line: In vitro assay LXRβ: PathHunter NHR CHO cells, LXRβ / Steroid Receptor Co-activator Peptide enzyme fragment complementation. The format is cell-based. The following applies: PathHunter NHR CHO cells, full-length human LXRβ and SRCP, chemiluminescent signal; read-out: LXRβ PPI. The essentials: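 Enzyme fragment complementation read-out: CHO cells stably expressing ProLink-tagged full-length human LXRβ plus nuclear enzyme acceptor–SRCP fusion, seeded and held overnight at 37° C. Medium with charcoal-dextran filtered serum; final vehicle 1%. Chemiluminescence measured after signal generation.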

In assay [4] the target is T1, SREBP-2. The experiment in a line: In vitro assay SREBP-2: PathHunter U2OS SREBP-2 Nuclear Translocation Cell Line, U18666A-stimulated. The format is cell-based. The following applies: PathHunter U2OS SREBP-2 nuclear translocation cells, U18666A 10 μM, overnight (16 hours).

The structures appear in SMILES notation.

T2 sequence (P55055 whole entry, the tested form may be a part): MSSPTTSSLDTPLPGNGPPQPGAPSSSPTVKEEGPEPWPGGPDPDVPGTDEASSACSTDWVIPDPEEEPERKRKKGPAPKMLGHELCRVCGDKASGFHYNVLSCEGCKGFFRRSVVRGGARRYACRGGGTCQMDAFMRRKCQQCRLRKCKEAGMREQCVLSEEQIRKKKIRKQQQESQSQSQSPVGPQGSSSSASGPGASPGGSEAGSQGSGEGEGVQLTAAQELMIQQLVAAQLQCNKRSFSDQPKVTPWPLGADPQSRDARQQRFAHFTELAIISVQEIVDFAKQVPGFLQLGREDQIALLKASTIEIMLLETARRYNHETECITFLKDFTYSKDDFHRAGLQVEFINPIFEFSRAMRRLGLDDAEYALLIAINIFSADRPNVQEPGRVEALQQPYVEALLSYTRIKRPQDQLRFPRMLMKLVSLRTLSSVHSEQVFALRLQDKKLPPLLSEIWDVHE

As for `CCCCON(C)C(=O)CC[C@@H](C)[C@H]1CC[C@H]2[C@@H]3CC=C4C[C@@H](O)CC[C@]4(C)[C@H]3CC[C@]12C` [Example 16], the IC50 in assay [1] is less than 250 nM. Also, in assay [2], the “LXRβ PPI” value is given as “B (250 nM-1000 nM)”. Further, in assay [3], the EC50 lay in the range of 1000 to 10000 nM.

With `C=C[C@](O)(CC[C@@H](C)[C@H]1CC[C@H]2[C@@H]3CC=C4C[C@@H](O)CC[C@]4(C)[C@H]3CC[C@]12C)C(F)(F)F` [Example 20, (3S,8S,9S,10R,13R,14S,17R)-17-((2R,5R)-5-hydroxy-5-(trifluoromethyl)hept-6-en-2-yl)-10,13-dimethyl-2,3,4,7,8,9,10,11,12,13,14,15,16,17-tetradecahydro-1H-cyclopenta[a]phenanthren-3-ol], the IC50 in assay [1] and in assay [4] was less than 250 nM throughout. For the same compound, the “LXRβ PPI” value in assay [2] is recorded as “D (>10000 nM)”. Moreover, the EC50 in assay [3] is greater than 10000 nM.

Consider `C[C@H](CCC(=O)N1CC[C@@H](CO)O1)[C@H]1CC[C@H]2[C@@H]3CC=C4C[C@@H](O)CC[C@]4(C)[C@H]3CC[C@]12C` [Example 42, (R)-4-((3S,8S,9S,10R,13R,14S,17R)-3-hydroxy-10,13-dimethyl-2,3,4,7,8,9,10,11,12,13,14,15,16,17-tetradecahydro-1H-cyclopenta[a]-phenanthren-17-yl)-1-((S)-5-(hydroxymethyl)isoxazolidin-2-yl) pentan-1-one], for which the IC50 in assay [1] was less than 250 nM; in assay [4], 250 to 1000 nM. For the same compound, the “LXRβ PPI” value in assay [2] is recorded as “D (>10000 nM)”.

For `C=C[C@@](O)(CC[C@@H](C)[C@H]1CC[C@H]2[C@@H]3CC=C4C[C@@H](O)CC[C@]4(C)[C@H]3CC[C@]12C)C(F)(F)F` [Example 19, (3S,8S,9S,10R,13R,14S,17R)-17-((2R,5S)-5-hydroxy-5-(trifluoromethyl)hept-6-en-2-yl)-10,13-dimethy12,3,4,7,8,9,10,11,12,13,14,15,16,17-tetradecahydro-1H-cyclopenta[a]phenanthren-3-ol], the IC50 in assay [1] and in assay [4] was less than 250 nM in each case. For the same compound, in assay [2], the “LXRβ PPI” value is “D (>10000 nM)”. Also, in assay [3], the EC50 was 1000 to 10000 nM.

What is called IC50 is the concentration needed to halve the response being measured. Read a high IC50 as a need for much substance.
